Assay results published in US7402696B2, “Benzene compounds” (Ajinomoto Co., Inc., priority 2004, dated 2008).

target: T1, ACC (acetyl CoA carboxylase) purified from liver of male SD rat (Rattus norvegicus, UniProt P11497); assay: Measurement of ACC inhibition activity ([14C]-NaHCO3 incorporation); type: biochemical; settings: ACC inhibition activity rate at 1 μM; Table 2-III, Mode 3 acetylene/oxadiazole/thiazole compounds (numbers = x-III); read-out: ACC Inhibition (%)
T1 construct: applied to a monomeric avidin sepharose column, and washed with buffer B. The ACC was eluted with buffer B containing 2 mM d-biotin; from tissue; host or cells: liver of male SD rat
Method: A male SD rat was deprived of food for two days and then fed a high-sucrose diet (component) for two days. While anesthetized with ether, the descending vena cava was cut upon, the animal was bled, and the liver was rapidly recovered. In an ice-cooled buffer solution A (225 mM mannitol, 75 mM sucrose, 10 mM Tris-HCl (pH 7.5), 0.05 mM EDTA, 5 mM potassium citrate, 2.5 mM MgCl2, 10 mg/L pepstatin A, 10 mg/L leupeptin, 1 mM PMSF), the liver was homogenized with a polytone homogenizer. A quantity of buffer A nine times the weight of the liver was added, the mixture was centrifuged for 10 minutes at 1,000 g, the supernatant was recovered, and the supernatant was centrifuged for another 10 minutes at 17,000 g.
Ammonium sulfate was added to 35 percent saturation to the obtained supernatant. The mixture was stirred for 45 minutes and then centrifuged for 10 minutes at 17,000 g. Buffer solution B (100 mM Tris-HCl (pH 7.5), 500 mM NaCl, 1 mM EDTA, 0.1 mM DTT, 10 percent glycerol, 10 mg/L pepstatin A, 10 mg/L leupeptin, 0.5 mM PMSF) was added to the obtained precipitate and dissolved. The solution was then centrifuged for 20 minutes at 40,000 g. The supernatant was dialyzed overnight against buffer C (100 mM Tris-HCl (pH 7.5), 500 mM NaCl, 1 mM EDTA, 0.1 mM DTT, 5 percent glycerol).
The dialyzed supernatant was passed through a […], applied to a monomeric avidin sepharose column, and washed with buffer B. The ACC was eluted with buffer B containing 2 mM d-biotin.
(2 Measurement of ACC Inhibition Activity)
The compounds synthesized in the above-described embodiments were dissolved in DMSO and charged to glass vials. 250 μL of ACC-containing reaction solution (40 mM Tris-HCl (pH 7.5), 40 mM MgCl2, 40 mM sodium citrate, and 2 mM DTT) was added. The mixture was heated for 30 minutes at 37° C. in a thermostatic chamber and then cooled with ice. To reaction solution 1 was added 250 μL of reaction solution 2 containing [14C]—NaHCO3 (40 mM Tris-HCl (pH 7.5), 2 mM DTT, 8 mM ATP, 0.5 mM acetyl CoA) and the mixture was heated for 10 minutes at 37° C. 100 μL of 1N HCl was added to stop the reaction. Water in the reaction solution was removed with a centrifugal evaporator, a scintillator was added, the solid component was dissolved, and the 14C radioactivity was measured with a liquid scintillation counter. The ACC inhibition activity of each compound was calculated from the following equation and converted to the ACC inhibition activity rate (%) at 1 μM.
ACC inhibition rate (%)=(1−(a−c)/(b−c))×100 a. Radioactivity when test drug added b: Radioactivity when test drug not added c: Blank* *Reaction solution 1 to which 100 μL of 1N HCl was added before mixing reaction solution 1 and reaction solution 2

Point of comparison: O=C(O)CNC(=O)Nc1ccc(C#Cc2cccc(C(F)(F)F)c2)cc1 [compound 65], inhibition at 1 µM 64%. Against it:
- O=C(O)c1ccc(C(=O)Nc2ccc(C#Cc3cccc(C(F)(F)F)c3)cc2)c(C(=O)O)c1 [compound 13] — lower, 51%
- O=C(O)c1ccccc1S(=O)(=O)Nc1ccc(C#Cc2cccc(C(F)(F)F)c2)cc1 [compound 9] — lower, 60%

same assay, conditions: ACC inhibition activity rate at 1 μM; Table 3-I, Mode 1 quinoline compounds (numbers = x-I); read-out: ACC Inhibition (%)

Point of comparison: O=C(O)c1ccc(-c2ccc3nc(-c4cc(C(F)(F)F)cc(C(F)(F)F)c4)ccc3c2)o1 [compound 82], inhibition at 1 µM 34%. Against it:
- CCCCS(=O)(=O)NC(=O)[C@@H]1C[C@H]2C[C@H](C2(C)C)[C@@]1(C)NC(=O)c1ccc2nc(-c3cc(C(F)(F)F)cc(C(F)(F)F)c3)ccc2c1 [compound 59] — higher, 74%
- CCCCS(=O)(=O)NC(=O)c1ccccc1NC(=O)c1ccc2nc(-c3cccc(OC(F)(F)F)c3)ccc2c1 [compound 13] — higher, 48%

same assay, conditions: ACC inhibition activity rate at 1 μM; Table 4-A, further compounds of Modes 2 and 3; read-out: ACC Inhibition (%)

Point of comparison: CCN(CC)c1ccc(-c2csc(-c3ccc(-c4csc(-c5cccc(S(=O)(=O)NC(=O)c6ccncc6)c5)n4)cc3)n2)cc1 [Compound 147-III], inhibition at 1 µM 65%. Against it:
- O=C(NS(=O)(=O)c1ccc(-c2nc(-c3ccc(-c4csc(-c5ccccc5)n4)cc3)no2)cc1)c1ccccc1 [Compound 135-III] — higher, 98%

same assay, conditions: ACC inhibition activity rate at 1 μM; Table 4-IV, Mode 4 benzenediamine compounds (numbers = x-IV); read-out: ACC Inhibition (%)

Point of comparison: CC(C)CCN(C)c1ccc(-c2nc(-c3cccc(C(=O)NS(=O)(=O)c4ccccc4)c3)no2)cc1[N+](=O)[O-] [compound 51], inhibition at 1 µM 76%. Against it:
- CC(C)CCN(C)c1ccc(-c2noc(-c3cccc(C(=O)NS(=O)(=O)c4ccccc4)c3)n2)cc1NCc1cccc(O)c1 [compound 96] — higher, 95%
- CCCCCC(=O)NS(=O)(=O)c1ccccc1NC(=O)c1ccc(Nc2ccc(C(F)(F)F)cc2)c(NC(=O)c2cc(C(F)(F)F)cc(C(F)(F)F)c2)c1 [compound 16] — higher, 86%
- CC(C)CCN(C)c1ccc(C(=O)NC(CC(=O)NS(=O)(=O)c2ccccc2)c2ccccc2)cc1N(C)Cc1ccccc1 (stereo not drawn) [compound 121] — higher, 90%
- Cc1ccccc1S(=O)(=O)NC(=O)CC(NC(=O)c1ccc(N(C)CCC(C)C)c(N(C)Cc2ccccc2)c1)C1CCCCC1 (stereo not drawn) [compound 118] — higher, 93%
- CCC(CC)C(=O)Nc1cc(-c2noc(-c3cccc(C(=O)NS(=O)(=O)c4ccccc4)c3)n2)ccc1N(C)CCC(C)C [compound 42] — the same, 76%
- CC(C)CCN(C)c1ccc(-c2noc(-c3cccc(C(=O)NS(=O)(=O)c4ccccc4)c3)n2)cc1NCc1cccc(F)c1 [compound 101] — higher, 100%
- Cc1ccccc1S(=O)(=O)NC(=O)c1cccc(-c2nc(-c3ccc(N(C)CCC(C)C)c(N4Cc5ccccc5C4=O)c3)no2)c1 [compound 127] — higher, 92%
- CSc1ccccc1CNc1cc(-c2noc(-c3cccc(C(=O)NS(=O)(=O)c4ccccc4)c3)n2)ccc1N(C)CCC(C)C [compound 115] — higher, 100%
- Cc1ccccc1S(=O)(=O)NC(=O)[C@@H]1CCCC[C@H]1NC(=O)c1ccc(N(C)CCC(C)C)c(NCc2ccccc2)c1 [Compound 145-IV] — lower, 57%
- CCCCCC(=O)NS(=O)(=O)c1ccccc1NC(=O)c1ccc(Nc2c(F)c(F)c(C(F)(F)F)c(F)c2F)c([N+](=O)[O-])c1 [compound 8] — lower, 50%
- CC(C)CCN(C)c1ccc(-c2noc(-c3cccc(C(=O)NS(=O)(=O)c4ccccc4)c3)n2)cc1NC(=O)c1cccs1 [compound 43] — higher, 83%
- O=C(Nc1cccc(C(=O)NS(=O)(=O)c2ccccc2)c1)c1ccc(NCCN2CCCC2)c([N+](=O)[O-])c1 [compound 67] — lower, 58%
- CC(C)CCN(C)c1ccc(C(=O)NC(CC(=O)NS(=O)(=O)c2cn(C)cn2)C2CCCCC2)cc1NCCc1ccccc1 (stereo not drawn) [Compound 162-IV] — higher, 85%
- CC(C)CCN(C)c1ccc(C(=O)NC(CC(=O)NS(=O)(=O)c2ccccc2)C2CCCCC2)cc1NCc1ccccc1 (stereo not drawn) [compound 54] — higher, 87%
- Cc1ccccc1S(=O)(=O)NC(=O)c1cccc(-c2nc(-c3ccc(N(C)CCC(C)C)c(NCc4ccccc4[N+](=O)[O-])c3)no2)c1 [compound 129] — higher, 100%
